This is an account of results in patent publication US20250281564A1, “DYSREGULATION OF NEUROPROTEASOMES BY APOE ISOFORMS DRIVES ENDOGENOUS TAU AGGREGATION” (The Trustees of Columbia University in the City of New York, priority 2022, published 2025).

This test has as its system endogenous mouse Tau. Description: Sarkosyl fractionation and Tau immunoblot, WT primary cortical neurons. In kind it is cell-based. To be noted: 1 μM, 12 hours, vs DMSO. The text has this:
(FIG. 5A) Effect of neuroproteasome-specific inhibitor iBEp on Tau aggregation in primary neurons. […] Quantification of soluble and insoluble murine Tau (mTau) intensities normalized to soluble GAPDH. […] (FIG. 5B) Effect of neuroproteasome inhibition on aggregation of human Tau (hTau). […] (FIG. 5C) Generation of reversible neuroproteasome inhibitors to test effects of neuroproteasome inhibition. (Top) Structure of Sulfo-MG132 (SulfoMG). […] (FIG. 5D) Effect of reversible neuroproteasome inhibition using SulfoMG on Tau aggregation. […] Quantification of soluble and insoluble Tau intensities were normalized to soluble GAPDH. Data (right) are mean±SEM normalized respective to DMSO controls. […] (FIG. 5E) Testing iBEp permeability in vivo. […] 72 hours post injection, hippocampi were isolated and subjected to membrane fractionation without detergent. […] (FIG. 5F) Effect of neuroproteasome inhibition on Tau aggregation in vivo.
In general terms: A western blot detects proteins with antibodies after separation by electrophoresis.

In the case of `CC[C@H](C)[C@H](NC(=O)CCOCCOCCOCCOCCOCCOCCOCCOCCOCCOCCOCCOCCOCCOCCOCCOCCOCCOCCOCCOCCOCCOCCOCCOCCn1cc(COCCOCCOCCOCCNC(=O)CCCC[C@@H]2SC[C@@H]3NC(=O)N[C@@H]32)nn1)C(=O)N[C@H](C(=O)N[C@H](C(=O)N[C@@H](CC(C)C)C(=O)[C@@]1(C)CO1)[C@@H](C)O)[C@@H](C)CC` [iBEp, Biotin-PEG24-Epoxomicin], the “sarkosyl-insoluble Tau, WT neurons” value is on record as “significant increase in sarkosyl-insoluble Tau”.
